# Source: patent US20240398767A1, “INHIBITORS OF THE MTDH-SND1 PROTEIN COMPLEX FOR CANCER THERAPY” (The Trustees of Princeton University, priority 2021, published 2024)
# How the values were obtained:
# [1] = tested on: PyMT;UBC-CreERT+/-;Mtdhfl/fl wild type tumor cells; test: Tumorsphere assay, PyMT;UBC-CreERT+/-;Mtdhfl/fl wild type tumor cells; format: cell-based, mouse; conditions: 5 days after treatment
# Description: (§1) FIG. 4C, PyMT;UBC-Cre^ERT+/−;Mtdh^fl/fl cells without 5 days of 0.02 μg/ml 4-OHT pre-treatment was employed for tumorsphere assay. 50 k per well of cells were seed and treated with indicated compounds the next day. 5 days after treatment, sphere number and size were assessed and normalized to vehicle control group. Data represent mean±SEM. n=3 independent experiments. Significance determined by one-way ANOVA analysis with Sidak's test for multiple comparisons.
# Next, PyMT; UBC-Cre^ERT+/−;Mtdh^fl/fl tumor cells: 1) with or without Mtdh pre-depletion; 2) with or without endogenous Snd1 knockdown; or 3) in combination were employed for tumorsphere assay followed by the compound treatments. […] The results were confirmed using C3 and Wnt;UBC-Cre^ERT+/−;Mtdh^fl/fl tumorspheres (FIG. 11B-11E). Taken together, these findings confirmed that the anti-tumor effect of C26-A2 and A6 is dependent on their specific effect on blocking MTDH-SND1 interaction.
# Caco-2 cells = test: Caco-2 cell based permeability test; format: in vitro ADME; conditions: 5 μM, A-to-B and B-to-A, 120 min
# Description: FIG. 11A, Caco-2 cells were employed to test cell permeability of C26-A2 and A6. 5 μM of compounds were dosed on both apical side (A-to-B) and basolateral side (B-to-A). Samples were taken from the donor and receiver chambers at 120 min after treatment. All samples were assayed by LC-MS/MS using electrospray ionization. The apparent permeability (Papp) and percent recovery were calculated.
# C26s cell permeability test. The cell permeability of C26-A2 and A6 were determined with monolayer of Caco-2 cells with both the apical-to-basolateral (A-to-B) and basolateral-to-apical (B-to-A) directions by Absorption Systems LLC Detailed protocol can be found in previous studies.
# [2] = target: T1, MTDH-SND1 interaction (split-luc) in SCP28 cells (Homo sapiens, UniProt Q7KZF4); test: Split-luciferase reporter in living SCP28 cells; format: cell-based; conditions: for blocking efficiency over time (stability of the compounds in cells): 100 μM, 5 days after the addition; for split-luc activity in living cells: multiple doses, 30 min after treatment
# T1 construct: SND1-NLuc and CLuc-MTDH flanked by BamH 1 and Not 1 restriction sites were inserted into pcDNA3.1 and pRVPTO (retrovrial) vectors; expressed in transfected cells; host or cells: SCP28 cells stably transduced with pRVPTO retroviral vectors (packaged in H29 cells)
# Description: FIG. 4A, SCP28 cells that stably express split- or linked-luciferase components were treated with multiple doses of C26-A2 or C26-A6. 30 minutes (min) after treatment, culture media was removed and the luciferase activity in the cells was measured. Data represent mean±SEM. n=3 independent experiments.
# FIG. 4B, The same cells as in FIG. 4A were treated with 100 μM of the compounds for indicated days, and were harvested to measure the luciferase activity. Data represent mean±SEM. n=3 independent experiments.
# C26s inhibit breast cancer progression and metastasis. C26-A2 and A6 were picked for the functional test. To this end, it was tested whether C26-A2 and A6 could inhibit breast cancer progression. […] Next, SCP28 breast cancer cells that were engineered to express split- or linked-luciferase reporter were treated with C26-A2 or A6.
# [3] = tested on: PyMT tumor cells with Mtdh KO or Snd1 KD; test: Tumorsphere assay, PyMT;UBC-CreERT+/-;Mtdhfl/fl cells with Mtdh KO or Snd1 KD; format: cell-based, mouse; conditions: Mtdh KO (4-OHT pre-treatment) or Snd1 KD
# Description: as §1, with “4D,” for “4C,”, “with” for “without”
# FIG. 4E, PyMT;UBC-Cre^ERT+/−;Mtdh^fl/fl cells with or without SND1 knockdown, or without 5 days of 0.02 μg/ml 4-OHT pre-treatment were subjected to the tumorsphere assay and then treated with 200 μM of C26-A6 similar to FIG. 4C. Data represent mean SEM. n=3 independent experiments. Significance determined by two tailed Student's t-test.
# FIG. 4F, PyMT;UBC-Cre^ERT+/−;Mtdh^fl/fl cells with or without SND1 knockdown, or with 5 days of 0.02 μg/ml 4-OHT pre-treatment were subjected to the tumorsphere assay and then treated with 200 μM of C26-A6 similar to FIG. 4C. Data represent mean±SEM. n=3 independent experiments. Significance determined by two tailed Student's t-test.
# Next, PyMT; UBC-Cre^ERT+/−;Mtdh^fl/fl tumor cells: 1) with or without Mtdh pre-depletion; 2) with or without endogenous Snd1 knockdown; or 3) in combination were employed for tumorsphere assay followed by the compound treatments. […]
# [4] = tested on: Wnt;UBC-CreERT+/-;Mtdhfl/fl tumor cells; test: Tumorsphere assay, Wnt;UBC-CreERT+/-;Mtdhfl/fl tumor cells; format: cell-based, mouse; conditions: with or without 4-OHT pre-treatment
# Description: For FIGS. 11B-11E, 50 k per well of cells were seeded and treated with indicated compounds the next day. 5 days after treatment, sphere number and size were assessed and normalized to vehicle control group. Data represent mean±SEM. n=3 independent experiments. Significance determined by one-way ANOVA analysis with Dunnett's test for multiple comparisons.
# FIG. 11D, Wnt;UBC-Cre^ERT+/−;Mtdh^fl/fl tumor cells without 5 days of 0.02 μg/ml 4-OHT pre-treatment were subjected to the tumorsphere assay.
# FIG. 11E, Wnt;UBC-Cre^ERT+/−;Mtdh^fl/fl tumor cells with 5 days of 0.02 μg/ml 4-OHT pre-treatment were subjected to the tumorsphere assay.
# T1 sequence (Q7KZF4 with tags, fused parts or gaps): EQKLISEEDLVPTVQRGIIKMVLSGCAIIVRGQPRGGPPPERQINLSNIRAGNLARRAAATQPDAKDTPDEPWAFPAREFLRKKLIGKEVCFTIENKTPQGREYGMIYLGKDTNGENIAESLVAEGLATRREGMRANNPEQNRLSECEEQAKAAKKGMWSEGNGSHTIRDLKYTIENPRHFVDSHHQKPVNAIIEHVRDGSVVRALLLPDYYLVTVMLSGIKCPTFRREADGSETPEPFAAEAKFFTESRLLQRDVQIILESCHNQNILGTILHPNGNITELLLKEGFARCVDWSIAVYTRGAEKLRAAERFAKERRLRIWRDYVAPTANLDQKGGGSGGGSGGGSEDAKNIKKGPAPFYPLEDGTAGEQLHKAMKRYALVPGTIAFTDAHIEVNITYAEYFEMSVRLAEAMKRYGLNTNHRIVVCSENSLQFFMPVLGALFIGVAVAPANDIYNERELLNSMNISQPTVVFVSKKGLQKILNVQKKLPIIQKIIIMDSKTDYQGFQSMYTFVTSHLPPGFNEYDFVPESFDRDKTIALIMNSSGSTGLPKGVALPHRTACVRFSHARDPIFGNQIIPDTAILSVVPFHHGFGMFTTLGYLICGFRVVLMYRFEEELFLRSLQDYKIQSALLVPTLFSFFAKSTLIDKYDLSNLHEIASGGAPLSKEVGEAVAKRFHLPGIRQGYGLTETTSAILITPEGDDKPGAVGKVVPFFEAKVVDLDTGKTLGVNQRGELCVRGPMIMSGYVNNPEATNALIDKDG
SMILES,tumorsphere formation (sphere number and size) [1],cell permeability (Caco-2 cells),blocking efficiency over time (stability of the compounds in cells) [2],split-luc activity in living cells [2],tumorsphere formation (sphere number and size) [3],tumorsphere formation (sphere number and size) [4]
COc1ccc(Cl)cc1S(=O)(=O)Nc1cccn2ncnc12 [Analog C26-A2],inhibited spheres,highly permeable,not significantly changed,inhibited split-luc activity in living cells in a dose dependent manner,no effects,confirmed
COc1ccc(Cl)cc1S(=O)(=O)Nc1cccn2nc(C)nc12 [Analog C26-A6],inhibited spheres,highly permeable,not significantly changed,inhibited split-luc activity in living cells in a dose dependent manner,no effects,confirmed
